From patent US10639345B2, “Compositions for preserving photoreceptor cells, retinal pigment epithelial cells, or visual function” (Massachusetts Eye and Ear Infirmary, priority 2010, dated 2020)
Where a SMILES comes first, the peptide text is derived from it. The star is where a group is joined. Cbz = O=C(OCc1ccccc1)*; CH2F = FC*

Experiments:
photoreceptors [1] = assay: TUNEL-positive cells after retinal detachment in RIP-3−/− mice; format: in vivo; settings: three days after retinal detachment
Procedure: The role of RIP-3 in RIP-mediated programmed necrosis in photoreceptor loss after retinal detachment was investigated in RIP-3 knockout (RIP-3−/−) mice. TUNEL assays were used to measure the amount of apoptotic and necrotic cell death (Grasl-Kraupp et al., HEPTALOGY (1995) 21(5):1465-8). TUNEL and quantification of TUNEL positive cells in ONL were performed as described above by using the ApopTag Fluorescein In Situ Apoptosis Detection Kit (Millipore, Billerica, Mass.).

photoreceptors [2] = assay: TEM quantification of photoreceptor death after retinal detachment in RIP-3−/− mice; format: in vivo; settings: day three after retinal detachment
Procedure: TEM was performed as previously described (Hisatomi T et al. (2008). J. CLIN. INVEST. 118:2025-2038). […] Over 200 photoreceptors each eye were photographed and subjected to quantification of cell death modes in a masked fashion. Photoreceptors showing cellular shrinkage and nuclear condensation were defined as apoptotic cells, while photoreceptors associated with cellular and organelle swelling and discontinuities in nuclear and plasma membrane were defined as necrotic cells. The presence of electron-dense granular materials were reported to occur subsequent to both apoptotic and necrotic cell death and cells with these findings were labeled simply as end-stage cell death/unclassified (Hisatomi T et al. (2003) AM. J. PATHOL. 162:1869-1879; Erickson P A et al. (1983) INVEST. OPHTHALMOL. VIS. SCI. 24:927-942).
The morphology of the RIP-3−/− retina after retinal detachment was also assessed by TEM. […] RIP-3 deficiency inhibits the switch to necrotic cell death by Z-VAD treatment and prevents photoreceptor death after retinal detachment. Scale bar, 5 μm.

[3] = test system: CD11b-positive macrophage/microglia; assay: CD11b immunofluorescence after retinal detachment in WT mice; format: in vivo
Procedure: Immunofluorescence was performed as previously reported (Hisatomi et al. (2008) J CLIN INVEST 118:2025-2038. The enucleated eyes were frozen in OCT compound (Sakura Finetechnical Co., Tokyo, Japan). Five μm-thick sections were cut, air dried and fixed in cold acetone for 10 minutes. Rat anti-CD11b (1:50; BD Biosciences, San Diego, Calif.) was used as the primary antibody and incubated at 4° C. overnight. A nonimmune serum was used as a negative control. Alexa Fluor 594-conjugated goat anti-rat IgG (Invitrogen, Carlsbad, Calif.) was used as the secondary antibody and incubated at room temperature for one hour. The specimens were imaged by confocal microscopy using the Leica HCX APOL40× lens.
FIG. 11C-D show immunofluorescence for CD11b (FIG. 11C) and quantification of CD11b-positive macrophage/microglia (FIG. 11D) in WT and RIP-3−/− retina after retinal detachment.

RIP-3−/− RPE cells = assay: Viability of RIP-3−/− RPE cells treated with poly I:C (Cell Counting Kit-8); format: cell-based, mice
Procedure: As described in Example 11, primary RPE cells were extracted from the retina of mice and cultured in the presence of 5 μg/ml of poly I:C for 48 hours or with PBS. Cell viability was measured using Cell Counting Kit-8 (Dojindo Laboratories, Kumamoto, Japan). This assay is based on the cleavage of 2-(2-methoxy-4-nitrophenyl)-3-(4-nitrophenyl)-5-(2,4-disulfophenyl)-2H-tetrazolium, monosodium salt (WST-8) by the mitochondrial dehydrogenase enzyme to produce a formazan dye. After incubation with WST-8 for two hours at 37° C., absorbance was measured at 450 nm to determine cell viability.
Without poly I:C treatment, the viability of RPE cells was similar in WT and RIP-3−/− cells.

photoreceptors [4] = assay: Normalized ONL thickness ratio after retinal detachment in RIP-3−/− mice
Procedure: TUNEL assays were used to measure the amount of apoptotic and necrotic cell death (Grasl-Kraupp et al., HEPTALOGY (1995) 21(5):1465-8). TUNEL and quantification of TUNEL positive cells in ONL were performed as described above by using the ApopTag Fluorescein In Situ Apoptosis Detection Kit (Millipore, Billerica, Mass.). The ratio of the ONL thickness to the thickness of neuroretina in the central area of the detached retina was determined by National Institutes of Health ImageJ software and standardized by that in the attached retina. The data are expressed as normalized ONL thickness ratio [(ONL/neuroretina thickness in detached retina)/(ONL/neuroretina thickness in attached retina)].

## COC(=O)CC(NC(=O)C(C)NC(=O)C(NC(=O)OCc1ccccc1)C(C)C)C(=O)CF (stereo not drawn) [Z-VAD, Benzyloxycarbonyl-Val-Ala-Asp(OMe)-fluoromethylketone] (Cbz-Val-Ala-Asp(OMe)-CH2F; configuration not given here)
Photoreceptors [1]
  number of TUNEL-positive cells: 407.7±188.9 cells/mm^2
Photoreceptors [2]
  % apoptotic cells (TEM): 4.8±1.3%
  % necrotic cells (TEM): 6.4±1.3%
  % unclassified (TEM): 0.9±0.4%
[3]
  infiltration of CD11b-positive cells (immunofluorescence): significantly increased infiltration
RIP-3−/− RPE cells
  viability of RPE cells: protected from cell death
Photoreceptors [4]; day 3 and 5 after retinal detachment, RIP-3−/− retinas
  ONL thickness ratio: augmented
Photoreceptors [4]; five days after retinal detachment, RIP-3−/− mice
  normalized ONL thickness ratio: 0.841±0.042
